Consider 15 compounds from patent US7960415B2, “Caspase inhibitors and uses thereof” (Vertex Pharmaceutical Incoporated, priority 2003, dated 2011).

Assay [1] concerns IL-1β secretion from human whole blood. Briefly: Inhibition of IL-1β secretion from whole blood. It counts as cell-based. The settings on record: human whole blood diluted 1:2, LPS 5 ng/ml, 18 hours, ELISA. Here is the method:
Human blood is freshly drawn from healthy donors and diluted 1:2 in PBS. To 500 μl of diluted blood […] of prediluted test compound in RPMI medium and […] LPS (5 ng/ml final concentration on the plate) are added (LPS, Serotype 0111:B4, Sigma L3012). After stimulation for 18 hours supernatants are collected and assayed for IL-1β levels using the appropriate ELISA kit (R&D systems).

For a further assay, the system named is rat cortical neurons. Put plainly: Hypoxia-induced apoptosis of rat cortical neurons. It counts as cell-based, Wistar rat. The settings on record: Cortical neurone, 95% N2/5% CO2, Cell Death Detection ELISA (DNA fragmentation). Here is the method: Cortical neurons are dissociated from Wistar rat embryos (E17) by a modification of the procedure of Rogers et al. 1997, Brain Res. Bulletin, 44:131. Briefly, cerebral cortices are isolated aseptically from 15-20 Wistar rat embryos. A cell suspension is prepared by mincing the cerebral cortices and digesting them with papain. Cells are washed with ovomucoid enzyme inhibitor and DNaseI and plated onto Poly-D lysine coated plates in high glucose DMEM containing 10% heat-inactivated fetal calf serum, L-glutamine, penicillin and streptomycin. The yield of neurons is […] per embryo and they are 80-90% viable as assessed by Trypan blue exclusion.
The neurons are cultured in complete medium at 37° C. in a normal atmosphere for 48 hours prior to the hypoxia experiments. For hypoxia, the normal cell medium is replaced by oxygen-depleted serum-free medium. Cells are incubated in an atmosphere of 95% N2/5% CO2 for various lengths of time. Compounds are dissolved in DMSO at 100 mM then diluted in medium and added to the culture from time=0. The level of apoptosis is measured using a Cell Death Detection ELISA kit (Roche) which detects DNA fragmentation. Plates are read at 405 nm. Controls included cells cultured in aerobic conditions in serum-containing medium (+serum) and cells cultured in aerobic conditions in serum-deprived medium (−serum).

For orientation: IC50 means the concentration at which inhibition is half-maximal. As to `CCCC(=O)Nc1cccn([C@@H](CC)C(=O)N[C@@H](CC(=O)O)C(=O)COc2c(F)c(F)cc(F)c2F)c1=O` [Compound 3, (S,S)-3-[2-(3-Butyrylamino-2-oxo-2H-pyridin-1-yl)-butyrylamino]-4-oxo-5-(2,3,5,6-tetrafluoro-phenoxy)-pentanoic acid], the half-inhibitory concentration (IC50) is less than 500 nM in assay [1] and 1000 to 10000 nM with rat cortical neurons.
`CC[C@@H](C(=O)N[C@@H](CC(=O)O)C(=O)COc1c(F)c(F)cc(F)c1F)n1cccc(NC(=O)COC)c1=O` [Compound 6, (S,S)-3-{2-[3-(2-Methoxy-acetylamino)-2-oxo-2H-pyridin-1-yl]-butyrylamino}-4-oxo-5-(2,3,5,6-tetrafluoro-phenoxy)-pentanoic acid]: the IC50 in assay [1] was 500 to 5000 nM; in the assay on rat cortical neurons it was 1000 to 10000 nM.
Regarding `CC[C@@H](C(=O)N[C@@H](CC(=O)O)C(=O)COc1c(F)c(F)cc(F)c1F)n1cccc(NC(=O)c2ccoc2)c1=O` [Compound 8, (S,S)-3-(2-{3-[(Furan-3-carbonyl)-amino]-2-oxo-2H-pyridin-1-yl}-butyrylamino)-4-oxo-5-(2,3,5,6-tetrafluoro-phenoxy)-pentanoic acid], the figures for the IC50 (in assay [1]; in the assay on rat cortical neurons) were 500 to 5000 nM and 1000 to 10000 nM, respectively.
Turning to `CC[C@@H](C(=O)N[C@@H](CC(=O)O)C(=O)COc1c(F)c(F)cc(F)c1F)n1cccc(NC(=O)c2cccnc2)c1=O` [Compound 9, (S,S)-4-Oxo-3-(2-{2-oxo-3-[(pyridine-3-carbonyl)-amino]-2H-pyridin-1-yl}-butyrylamino)-5-(2,3,5,6-tetrafluoro-phenoxy)-pentanoic acid], the IC50 in assay [1] is 500 to 5000 nM; in the assay on rat cortical neurons, 1000 to 10000 nM.
For the compound `CC[C@@H](C(=O)N[C@@H](CC(=O)O)C(=O)COc1c(F)c(F)cc(F)c1F)n1cccc(NC(=O)c2ccsn2)c1=O` [Compound 10, (S,S)-3-(2-{3-[(Isothiazole-3-carbonyl)-amino]-2-oxo-2H-pyridin-1-yl}-butyrylamino)-4-oxo-5-(2,3,5,6-tetrafluorophenoxy)-pentanoic acid], the values for the half-maximal inhibitory concentration (IC50) (in assay [1]; with rat cortical neurons) were less than 500 nM and less than 1000 nM, respectively.
In the case of `CC[C@@H](C(=O)N[C@@H](CC(=O)O)C(=O)COc1c(F)c(F)cc(F)c1F)n1cccc(NC(=O)Cc2ccccc2)c1=O` [Compound 12, (S,S)-4-Oxo-3-[2-(2-oxo-3-phenylacetylamino-2H-pyridin-1-yl)-butyrylamino]-5-(2,3,5,6-tetrafluoro-phenoxy)-pentanoic acid], the IC50 was 500 to 5000 nM in assay [1] and less than 1000 nM in the assay on rat cortical neurons.
As for `CCNC(=O)Nc1cccn([C@@H](CC)C(=O)N[C@@H](CC(=O)O)C(=O)COc2c(F)c(F)cc(F)c2F)c1=O` [Compound 14, (S,S)-3-{2-[3-(3-Ethyl-ureido)-2-oxo-2H-pyridin-1-yl]-butyrylamino}-4-oxo-5-(2,3,5,6-tetrafluoro-phenoxy)-pentanoic acid], the values for the IC50 (in assay [1]; with rat cortical neurons) were less than 500 nM and 1000 to 10000 nM, respectively.
For `CC[C@@H](C(=O)N[C@@H](CC(=O)O)C(=O)COc1c(F)c(F)cc(F)c1F)n1cccc(NC(=O)N(CC)CC)c1=O` [Compound 15, (S,S)-3-{2-[3-(3,3-Diethyl-ureido)-2-oxo-2H-pyridin-1-yl]-butyrylamino}-4-oxo-5-(2,3,5,6-tetrafluoro-phenoxy)-pentanoic acid] the same measures were 500 to 5000 nM and less than 1000 nM.
Take `CC[C@@H](C(=O)N[C@@H](CC(=O)O)C(=O)COc1c(F)c(F)cc(F)c1F)n1cccc(NC(=O)N2CCCC2)c1=O` [Compound 16, (S,S)-4-Oxo-3-(2-{2-oxo-3-[(pyrrolidine-1-carbonyl)-amino]-2H-pyridin-1-yl}-butyrylamino)-5-(2,3,5,6-tetrafluoro-phenoxy)-pentanoic acid]: the IC50 was in the range of 500 to 5000 nM in assay [1] and 1000 to 10000 nM in the assay with rat cortical neurons.
For `CC[C@@H](C(=O)N[C@@H](CC(=O)O)C(=O)COc1c(F)c(F)cc(F)c1F)n1cccc(NS(=O)(=O)C(C)C)c1=O` [Compound 20, (S,S)-4-Oxo-3-{2-[2-oxo-3-(propane-2-sulfonylamino)-2H-pyridin-1-yl]-butyrylamino}-5-(2,3,5,6-tetrafluoro-phenoxy)-pentanoic acid] the same measures were 500 to 5000 nM and less than 1000 nM.
Take `CC[C@@H](C(=O)N[C@@H](CC(=O)O)C(=O)COc1c(F)c(F)cc(F)c1F)n1cccc(NS(=O)(=O)c2ccccc2)c1=O` [Compound 21, (S,S)-3-[2-(3-Benzenesulfonylamino-2-oxo-2H-pyridin-1-yl)-butyrylamino]-4-oxo-5-(2,3,5,6-tetrafluoro-phenoxy)-pentanoic acid]: the IC50 in assay [1] lay in the range of 500 to 5000 nM; in the assay on rat cortical neurons, 1000 to 10000 nM.
`CC(C)[C@@H](C(=O)N[C@@H](CC(=O)O)C(=O)COc1c(F)c(F)cc(F)c1F)n1cccc(NC(=O)Cc2ccccc2)c1=O` [Compound 23, (S,S)-3-[3-Methyl-2-(2-oxo-3-phenylacetylamino-2H-pyridin-1-yl)-butyrylamino]-4-oxo-5-(2,3,5,6-tetrafluoro-phenoxy)-pentanoic acid] gave an IC50 in assay [1] of 500 to 5000 nM.
As for `CCS(=O)(=O)Nc1cccn([C@H](C(=O)N[C@@H](CC(=O)O)C(=O)COc2c(F)c(F)cc(F)c2F)C(C)C)c1=O` [Compound 24, (S,S)-3-[2-(3-Ethanesulfonylamino-2-oxo-2H-pyridin-1-yl)-3-methyl-butyrylamino]-4-oxo-5-(2,3,5,6-tetrafluoro-phenoxy)-pentanoic acid], in the assay with rat cortical neurons, the IC50 fell in the range of 1000 to 10000 nM.
With `CC[C@@H](C(=O)N[C@@H](CC(=O)O)C(=O)COc1c(F)c(F)cc(F)c1F)n1cccc(Nc2nccs2)c1=O` [Compound 38, (S,S)-4-Oxo-3-{2-[2-oxo-3-(thiazol-2-ylamino)-2H-pyridin-1-yl]-butyrylamino}-5-(2,3,5,6-tetrafluoro-phenoxy)-pentanoic acid], the IC50 in assay [1] is 500 to 5000 nM; with rat cortical neurons, less than 1000 nM.
On to `CCCNc1cccn([C@@H](CC)C(=O)N[C@@H](CC(=O)O)C(=O)COc2c(F)c(F)cc(F)c2F)c1=O` [Compound 39, (S,S)-4-Oxo-3-[2-(2-oxo-3-propylamino-2H-pyridin-1-yl)-butyrylamino]-5-(2,3,5,6-tetrafluoro-phenoxy)-pentanoic acid], for which the IC50 in assay [1] was 500 to 5000 nM; with rat cortical neurons it was less than 1000 nM.
